# Experiments:
# [1] = target: T1, recombinant human pancreatic GLK (Homo sapiens, UniProt P35557); assay: Enzymatic activity of GLK (G-6-P dehydrogenase coupled, NADP/NADPH, OD 340 nm); assay type: biochemical; settings: read-out: activating activity for glucokinase, EC50
# T1 construct: 6-His (N); made in house; host or cells: E. coli BL21
# T1 sequence (P35557 1-465): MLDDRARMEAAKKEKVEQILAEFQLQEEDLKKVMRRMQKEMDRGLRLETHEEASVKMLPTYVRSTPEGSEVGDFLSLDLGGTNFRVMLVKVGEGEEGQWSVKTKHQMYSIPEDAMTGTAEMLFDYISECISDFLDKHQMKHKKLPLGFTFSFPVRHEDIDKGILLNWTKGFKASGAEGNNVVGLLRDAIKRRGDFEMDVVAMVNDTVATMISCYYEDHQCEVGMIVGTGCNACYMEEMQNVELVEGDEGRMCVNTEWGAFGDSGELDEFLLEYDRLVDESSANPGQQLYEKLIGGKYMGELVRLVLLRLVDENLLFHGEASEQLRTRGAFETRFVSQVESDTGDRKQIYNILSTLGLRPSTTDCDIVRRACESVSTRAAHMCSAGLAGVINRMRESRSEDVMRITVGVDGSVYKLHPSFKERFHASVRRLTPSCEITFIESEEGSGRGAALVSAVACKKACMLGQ
# Zucker obese fa/fa rats = assay: Oral Glucose Tolerance Test (OGTT); assay type: in vivo, rat; settings: 10 mg/kg, given orally 120 minutes before glucose 2 g/kg; percent inhibition of blood glucose AUC vs vehicle
# Method: The animals were fasted for 2 hours before use for experiments. A test compound or a vehicle was given orally 120 minutes before oral administration of a glucose solution at a dose of 2 g/kg body weight. Blood glucose levels were measured using a Accucheck glucometer from tail bled samples taken at different time points before and after administration of glucose (time course of 60 minutes). […] Percent inhibition is determined using the AUC in the vehicle-control group as zero percent inhibition.
# Oral exposure = assay type: in vivo; settings: compared with Example II107 in WO 03/015774
EC50 [1],oral exposure (Oral exposure),SMILES,OGTT activity (Zucker obese fa/fa rats)
50 nM,superior,"CC(C)Oc1cc(Oc2ccc(S(C)(=O)=O)cc2)cc(C(=O)Nc2nccs2)c1 [Example 7c, 3-(1-methylethyl)oxy-5-[4-(methylsulfonyl)phenoxy]-N-1,3-thiazol-2-ylbenzamide]",18%
,,"Cc1cnc(NC(=O)c2cc(OCCc3ccsc3)cc(OC(C)C)c2)s1 [Example II107 in WO 03/015774, reference compound]",not active

# From patent US20080312207A1, “Compounds” (priority 2004, published 2008)
